Tests used:
[1] = test system: Edema; test: Antiinflammatory effect (carragenin-induced edema of rat foot, oral); format: in vivo, Wister rats; conditions: 30 mg/kg, carragenin 60 min after dosing, foot volume 3 hours thereafter
Protocol: Wister rats (age 6 weeks), 5 of which consisted one group, were fasted for 18 hours and orally given a test compound which was dissolved or suspended in a 0.5% sodium carboxymethylcellulose (CMC-Na). Sixty (60) minutes after administration of the tested compound each rat was subcutaneously given 0.1 ml of 1% carragenin physiological saline at its right plantar, and 3 hours thereafter the volume of its foot (A) was measured. The rate of edematization was determined by the formula [(A-B)/B]×100, in which (A) is the thus-obtained volume of animals foot and (B) denots the corresponding volume before administration of the compound (B).
The rate of edematization of controls which were subcutaneously given 0.1 ml of 1% carragenin physiological saline at their right plantars was also determined in the same manner. The rate of edema inhibition was determined on each of the tested compounds according to the following equation: [formula]
The results are shown in Table 1, in which the compound numbers correspond those of Examples appearing hereinafter in this specification.

[2] = test system: heart rate; test: Antiarrhythmic effect (chloroform, mice, ip); format: in vivo; conditions: positive = 1-200 per minute heart rate
Protocol: Mice, age 5 weeks and weighing approximately 25 g, 6 of which consisted one group, were given a test compound which was dissolved in a 0.01 N-0.1 N hydrochloric acid solution (ip). Ten (10) minutes thereafter the mice were put into a sealed container which was filled with chloroform, their chests were incised promptly after confirming the respiratory arrest, and the heart rate was counted. Those with a 1-200 per minute heart rate were judged as positive in their antiarrhythmic effect.

[3] = test system: right and left atrium muscles; test: Cardiotonic effect (positive inotropic effect on isolated guinea pig atrium muscles); parameters: species or system Hartley male guinea pigs; conditions: Cavia porcellus, 10^-5 g/ml, 32° C, maximum change of contractive force, read-out: Positive Inotropic Effect (% per the value obtained on controls)
Protocol: Hearts of Hartley male guinea pigs, weighing 500-800 g, were taken out and their atrium muscles were enucleated in Krebs - hydrogencarbonate solution, to serve the same as samples for the test. The both ends of right and left atrium muscles with a spontaneous beat were fixed by means of Serres fines, and suspended, with their upper and lower portions being fixed, in a bath containing 20 ml of Krebs - hydrogencarbonate solution which was aerated by 95% O2 +5% CO2 at 32° C. Then contractive forces of the spontaneous beat were isometrically measured. After the samples were stabilized, the test compound dissolved in 1 N hydrochloric acid solution and diluted by physiological saline to a concentration of 10^-5 g/ml was charged into the bath. Maximum changes (%) of the contractive force after charging the test compound per the value obtained immediately before the charge were determined. The values obtained, which respresent a positive inotropic effect, were made a standard for the cardiotonic effect.

SMILES	Edema Inhibition Rate (%) [1]	Animals exhibited positive antiarrhythmic/Animals tested ([2]; 12.5 mg/kg)	Animals exhibited positive antiarrhythmic/Animals tested ([2]; 25.0 mg/kg)	activation at 10 µg/mL [3]
CC(=O)Nc1cc2cccnc2c(N2CCNCC2)n1 [Compound No. 1, 6-acetamido-8-(1-piperazinyl)-1,7-naphthyridine]	64.8%	5/6	4/6	–
CC(=O)Nc1cc2cccnc2c(N2CCN(C=O)CC2)n1 [compound 2]	35.0%	–	–	35.8%
CC(=O)Nc1cc2cccnc2c(N2CCN(C(C)=O)CC2)n1 [compound 3]	–	–	–	35.6%
CC(=O)Nc1cc2cccnc2c(N2CCN(C(=O)c3ccccc3)CC2)n1 [compound 4]	–	2/6	4/6	–
CC(=O)Nc1cc2cccnc2c(N2CCN(C(=O)c3ccc([N+](=O)[O-])cc3)CC2)n1 [compound 8, 6-acetamido-8-[4-(p-nitrobenzoyl)-1-piperazinyl]-1,7-naphthyridine]	28.6%	–	–	–
COc1ccc(C(=O)N2CCN(c3nc(NC(C)=O)cc4cccnc34)CC2)cc1 [compound 9]	30.4%	–	–	–
COc1ccc(C(=O)N2CCN(c3nc(NC(C)=O)cc4cccnc34)CC2)cc1OC [compound 10]	–	–	–	16.7%
COc1cc(C(=O)N2CCN(c3nc(NC(C)=O)cc4cccnc34)CC2)cc(OC)c1OC [compound 11]	–	1/6	6/6	–
CC(=O)Nc1cc2cccnc2c(N2CCN(c3cccc(Cl)c3)CC2)n1 [compound 15]	–	4/6	4/6	–
CC(=O)Nc1cc2cccnc2c(N2CCN(c3ccc(F)cc3)CC2)n1 [compound 17]	–	3/6	5/6	–
CC(=O)Nc1cc2cccnc2c(N2CCN(Cc3ccccc3)CC2)n1 [compound 22]	57.1%	–	–	16.7%

— patent US4866176A, “8-Piperazinyl-1,7-naphthyridine derivative having pharmaceutical activity” (SS Pharmaceutical Co., Ltd., priority 1986, dated 1989)
